From PMC12006758 (Frontiers in Chemistry, 2025)
≈ marks a conversion by molar mass, not a printed value. Like-named read-outs stand apart in the source and are kept apart here. Each block holds one compound with its values, some of them ahead of it.

How the values were obtained:
caspase-9 = assay: Caspase-9 activity in PC3 cells; assay type: cell-based, human; details: DMSO control 4.66 ± 0.41
Text: (§1) This notable increase underscores the activation of downstream apoptotic processes, as caspase-3 is a key effector protease responsible for the cleavage of vital cellular substrates during apoptosis. […] The activation of caspase-9 indicates the involvement of the intrinsic (mitochondrial) pathway, consistent with the observed modulation of upstream regulators, including p53, Bax, and Bcl-2.

HT-29 cancer cell line = assay: MTT cell viability assay, HT-29; assay type: cell-based; details: Homo sapiens, HT-29 colon cancer cells
Description: (§2) All cell lines were obtained from the Vacsera Cell Culture Library, Tissue Culture Unit, Cairo, Egypt, with ATCC certification. For further details, See Supplementary Appendix A in the supplementary data.
(§3) All cell lines were obtained from the Vacsera Cell Culture Library, Tissue Culture Unit, Cairo, Egypt, with ATCC certification.
(§4) Cells were cultured in DMEM (Invitrogen/Life Technologies) supplemented with 10% FBS (Hyclone), […] (Sigma), and 1% penicillin-streptomycin. Cells were seeded at a density of 1.2–1.8 × 10,000 cells per well in 96-well plates with 100 µL of complete growth medium […]. After 24 hours of incubation, 100 µL of serially diluted sterile test compounds were added to achieve final concentrations ranging from 0.01 to 100 µM, with growth media serving as the negative control. Following another 24-hour incubation, supernatants were removed, and cells were prepared for MTT testing.
(§5) Each experiment included a blank control with complete media but no cells. […] Reconstituted MTT was added to the culture medium at 10% of its volume, and cultures were incubated for 2 to 4 hours, depending on cell type and density.
(§6) Absorbance was measured spectrophotometrically at 570 nm, with background absorbance at 690 nm subtracted. Data from all experiments were recorded, and cell viability percentages were calculated.

Bax = Bax protein expression level in PC3 cells; assay type: cell-based, human; details: DMSO control 81.49 ± 3.16
MCF7 cancer cell line = assay: MTT cell viability assay, MCF7; assay type: cell-based; details: Homo sapiens
Description: as §2, §3, §4, §5, §6

PC3 cancer cell line = assay: MTT cell viability assay, PC3; assay type: cell-based; details: Homo sapiens, read-out: IC50 PC3
Description: as §2, §3, §4, §5, §6

PC3 cells [1] = assay: Cell cycle analysis by flow cytometry (PI); assay type: cell-based, human; details: Pyr at IC50 (8.63 μg/mL), 24 hours
Description: For further details, See Supplementary Appendix A in the supplementary data.
After treatment, the cells were washed twice with ice-cold phosphate-buffered saline (PBS, pH 7.4, Sigma-Aldrich, Inc.), collected by centrifugation, and fixed in 66% ice-cold ethanol. The cells were subsequently washed with PBS, resuspended in a solution containing 0.1 mg/mL RNase for 30 minutes, stained with 50 µg/mL propidium iodide (PI), and analyzed using the FACSCalibur flow cytometry system (Becton Dickinson, Franklin Lakes, NJ, USA). Cell cycle distributions were determined with CellQuest software (Becton Dickinson).

caspase-3 = assay: Caspase-3 activity in PC3 cells; assay type: cell-based, human; details: DMSO control 67.02 ± 2.6
Text: as §1

[2] = tested on: normal CCD-986sk cell line; assay: MTT cell viability assay, normal CCD-986sk; assay type: cell-based; details: Homo sapiens, read-out: IC50 CCD-986sk
Description: as §2, §3, §4, §5, §6

PC3 cells [3] = assay: Annexin V-FITC/PI apoptosis assay; assay type: cell-based, human; details: Pyr at IC50 (8.63 μg/mL), 48 hours
Text: To detect apoptosis in PC3 cancer cells, the Annexin V FITC assay protocol was employed as described in the literature ([Ali et al., 2024]). For further details, See Supplementary Appendix A in the supplementary data.
The Annexin V-FITC Apoptosis Detection Kit (Catalog #: K101-25, Bio Vision Research Products, Mountain View, CA, USA) operates on the principle that during the early stages of apoptosis, phosphatidylserine (PS) translocates from the inner leaflet of the plasma membrane to the extracellular surface. This relocation allows PS to be detected by Annexin V, a protein with high affinity for PS, when conjugated with a fluorescent compound. The staining process is quick, taking only 10 minutes, and apoptosis detection is performed using flow cytometry. The kit differentiates between apoptotic and necrotic cells based on Annexin V-FITC and propidium iodide (PI) labeling. Early apoptotic cells are Annexin V-positive and PI-negative, while late apoptotic cells are both Annexin V-positive and PI-positive.
For the experiment, cells (5 × 10⁵) were cultured in triplicate in Dulbecco’s Modified Eagle Medium (DMEM) at 37 °C in a 5% CO₂ atmosphere for 24 hours to allow for attachment. […] Following incubation, cells were harvested, washed with cold PBS, and resuspended in binding buffer. Annexin V and PI were added, and the cells were incubated at 4 °C in the dark for 30 minutes for staining. Flow cytometric analysis was performed using the FACS Calibur system (Becton Dickinson, Franklin Lakes, NJ, USA) on a minimum of 10⁴ cells. Dot plots were generated, and the total fraction of apoptotic cells was quantified as described.

Bcl-2 = Bcl-2 protein expression level in PC3 cells; assay type: cell-based, human; details: DMSO control 21.68 ± 0.7
p53 = p53 protein expression level in PC3 cells; assay type: cell-based, human; details: DMSO control 151.33 ± 3.33
CA IX = details: benzofuran-based SLC-0111 analog; ref Shaldam et al., 2021; cited from earlier work

IC50 (HT-29 cancer cell line): 27.7 mg/L (≈ 94.9 µM)
IC50 (MCF7 cancer cell line; MTT, MCF7 breast cancer cells, read-out: IC50 MCF7): 11.2 mg/L (≈ 38.3 µM)
IC50 (PC3 cancer cell line; MTT, PC3 prostate cancer cells): 8.36 mg/L (≈ 28.6 µM)
SMILES: NS(=O)(=O)c1ccc(NC(=O)Nc2ccncc2)cc1 [Pyr, 4-(3-(pyridin-4-yl)ureido)benzenesulfonamide]
Caspase-9 Conc (caspase-9): 41.82 ± 0.95 ng/mL
Bax Conc (Bax): 477.27 ± 18.54 pg/mL
DNA content % G2/M (PC3 cells [1]; DMSO control 17.50): 7.18%
DNA content % S (PC3 cells [1]; DMSO control 28.66): 16.23%
DNA content % G0-G1 (PC3 cells [1]; DMSO control 53.84): 76.59%
Caspase 3 Conc (caspase-3): 573.19 ± 22.27 pg/mL
IC50 ([2]; MTT, normal CCD-986sk cells): 50.3 mg/L (≈ 172 µM)
Apoptosis Late (PC3 cells [3]; DMSO control 0.15): 15.74%
Apoptosis Early (PC3 cells [3]; DMSO control 0.42): 9.33%
Necrosis (PC3 cells [3]; DMSO control 1.82): 4.39%
Bcl-2 Conc (Bcl-2): 8.88 ± 0.3 pg/mL
P53 Conc (p53): 1461.33 ± 10.00 pg/mL

IC50 (MCF7 cancer cell line; MCF7, read-out: IC50 MCF7): 18.1 mg/L (≈ 58.7 µM)
IC50 (PC3 cancer cell line): 8.71 mg/L (≈ 28.2 µM)
SMILES: NS(=O)(=O)c1ccc(NC(=O)Nc2ccc(F)cc2)cc1 [SLC-0111, reference compound]
IC50 ([2]; CCD-986Sk): 45.7 mg/L (≈ 148 µM)

SMILES: NS(=O)(=O)c1ccc(NC(=O)Nc2oc3ccccc3c2Br)cc1 [compound 1]
Ki (CA IX): 7.1 nM
